In patent publication US9642851B2, “Indolinone derivative as tyrosine kinase inhibitor” (KBP Biosciences Co., Ltd., priority 2012, dated 2017):
Structures can show the parent of a compound that is named as a salt.

What was measured:
HUVEC cells = test: In vitro cellular inhibitory activity, h-VEGF-A stimulated HUVEC proliferation; format: cell-based; settings: Homo sapiens, h-VEGF-A 10 ng/ml, incubated for 89 hours, absorbance at 490 nm, read-out: ED50 for the HUVEC in vitro cells
Experimental: (1) Thawing cells and Passing cells.
The 3T3 cells were resuspended in a culture medium containing 10% fetal bovine serum, wherein the cell concentration was 5×10^4/ml. The cell suspension was added to a 96-well plate with 100 μL per well, and incubated overnight; the HUVEC cells were resuspended in a culture medium containing 10% heat-inactivated fetal bovine serum, wherein the cell concentration was 7.5×10^4/ml. The cell suspension was added to a 96-well plate with 100 μL per well. • (3) Treating with drugs: the compounds were diluted to different concentrations, and 60 μLh-PDGF-BB (3T3 cells) and 40 ng/ml h-VEGF-A (HUVEC cells) were added and incubated for 1 hour. • (4) 100 μL of a solution containing the compound and h-PDGF-BB (h-VEGF-A, for the HUVEC cells) was added to a cell culture plate, wherein the final concentration of h-PDGF-BB was 10 ng/ml, the final concentration of h-VEGF-A was 10 ng/ml, and the final concentration for the compounds were 10, 3.3333, 1.1111, 0.3704, 0.1235, 0.0412, 0.0137, 0.0046, and 0.0015 μM. The plate was incubated for 40 hours, and the HUVEC cells were incubated for 89 hours. To each well was added 20 μL Promega Substrate, and the plate was incubated at 37° C. for 7.5 hours, and the HUVEC cells were incubated for 11.5 hours. Then the plate was placed in a microplate reader to read the absorbance at 490 nm. • (5) Data processing
The curve of the compound concentration vs. Net OD was plotted, wherein Net OD=Compound OD−min. OD. ED50 was calculated according to the following equation: Conc. ED50(x)=(y−b)/a, y=Calculated Net OD for IC50, a=slope, b=intercept.

hERG potassium channel = hERG potassium channel (Homo sapiens, UniProt Q12809); test: Inhibitory effect on hERG potassium channel with the patch clamp method
hERG potassium channel, sequence (Q12809 whole entry): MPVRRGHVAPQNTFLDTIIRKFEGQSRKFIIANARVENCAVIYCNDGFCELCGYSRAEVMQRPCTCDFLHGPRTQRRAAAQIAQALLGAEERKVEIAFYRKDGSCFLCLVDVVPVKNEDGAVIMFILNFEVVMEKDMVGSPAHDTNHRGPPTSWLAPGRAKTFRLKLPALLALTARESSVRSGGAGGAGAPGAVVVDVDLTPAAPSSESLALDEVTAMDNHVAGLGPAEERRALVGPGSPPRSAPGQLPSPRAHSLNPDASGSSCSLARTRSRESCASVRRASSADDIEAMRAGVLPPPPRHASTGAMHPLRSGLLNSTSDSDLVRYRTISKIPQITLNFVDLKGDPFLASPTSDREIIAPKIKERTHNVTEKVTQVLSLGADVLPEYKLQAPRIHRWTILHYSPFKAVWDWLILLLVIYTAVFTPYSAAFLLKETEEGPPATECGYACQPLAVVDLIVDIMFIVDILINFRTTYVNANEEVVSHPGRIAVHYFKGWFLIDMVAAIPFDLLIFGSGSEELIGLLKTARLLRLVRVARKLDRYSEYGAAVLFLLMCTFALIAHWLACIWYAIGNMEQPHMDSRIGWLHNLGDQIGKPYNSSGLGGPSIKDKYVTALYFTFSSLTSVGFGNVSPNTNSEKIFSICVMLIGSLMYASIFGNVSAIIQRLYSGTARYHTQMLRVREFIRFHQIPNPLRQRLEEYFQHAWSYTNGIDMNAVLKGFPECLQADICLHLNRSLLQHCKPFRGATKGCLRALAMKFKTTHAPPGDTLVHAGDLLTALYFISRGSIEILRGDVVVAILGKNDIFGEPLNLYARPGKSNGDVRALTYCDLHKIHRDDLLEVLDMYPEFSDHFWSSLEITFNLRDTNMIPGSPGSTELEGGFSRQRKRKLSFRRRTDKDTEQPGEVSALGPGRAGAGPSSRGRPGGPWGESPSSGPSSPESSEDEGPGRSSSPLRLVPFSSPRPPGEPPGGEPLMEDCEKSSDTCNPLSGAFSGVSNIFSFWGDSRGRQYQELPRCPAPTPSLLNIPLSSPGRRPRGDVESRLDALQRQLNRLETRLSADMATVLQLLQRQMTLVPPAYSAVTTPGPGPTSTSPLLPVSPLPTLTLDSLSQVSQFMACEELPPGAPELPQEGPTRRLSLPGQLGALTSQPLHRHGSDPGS
Experimental: 1. Preparations of the Solutions and the Compounds
Extracellular fluid (mM): N-2-hydroxyethylpiperazine-N′-2-ethanesulfonic acid (HEPES) 10, NaCl 145, KCl 4, CaCl2 2, MgCl2 1, Glucose 10, adjusted with 1N sodium hydroxide to pH=7.4; the osmotic pressure was adjusted to 290-300 mOsm; filtered and preserved at 4° C.
Intracellular solution (mM): KCl 120, KOH 31.25, CaCl2 5.374, MgCl2 1.75, Ethylene glycol-bis(β-aminoethyl ether)-N,N,N′,N′-tetraacetic acid (EGTA) 10, HEPES 10, Na2-ATP 4, adjusted with 1N potassium hydroxide to pH=7.2; the osmotic pressure was adjusted to 280-290 mOsm; filtered and preserved at −20° C.
Before the experiments, the above stock solutions were diluted with DMSO to the levels that were 333 or 1000 times higher than the experiment concentrations, and then diluted by 333 or 1000 folds with the extracellular fluid to the desired concentrations. The final concentration of DMSO in the extracellular fluid was 0.3% or 0.1%.
2. Electrophysiological experiment. The hERG current was recorded with whole cell patch clamp technique. A cell suspension was added to a 35 mm petri dish, and placed on the object stage of an inverted microscope. After the adherence of cells, the perfusion with the extracellular fluid was done in a perfusion rate of 1-2 ml/min. […] After establishing a whole-cell record, the holding potential was kept at −80 mV. In the voltage stimulation, the depolarization was made at the potential of +60 mV. Then, the repolarization was made at the potential of −50 mV and the hERG tail current was recorded. All of the recordings were conducted after the currents became stable. The extracellular perfusion administration started from the lower concentration, and the administration at each concentration was conducted for 5-10 mines until the current became stable and then the administration at the next concentration was conducted. 3. The Experiment Included the Following Aspects:
The hERG current was recoded on the CHO-K1 cell line stably expressing the hERG channel with the manual patch clamp technology; the inhibition ratio at each concentration was calculated according to the hERG tail current; each of the compounds was measured at five concentrations to deduce the IC50 value; two cells were measured at each concentration; and one positive control drug was used.
4. Data Collection and Processing
The stimulation and the signal collection were accomplished through A/D-D/A digital-analog conversions with Digidata 1440 (Molecular Devices) and pCLAMP software (Version 10.2, Molecular Devices); the signal was amplified with a patch clamp amplifier (Multiclamp 700B, Molecular Devices), and filtered at 1 KHz. The data were further analyzed and subjected to the curve fitting with Clampfit (Version 10.2, Molecular Devices) and Prism. The data were expressed as mean value±standard deviation. The IC50 value was obtained by the fitting based on the Logistic equation:
[formula] • y: the inhibitory percent; max: 100%; min: 0%; [drug]: the concentration of the tested substance; nH: the slope rate; IC50: the half maximal inhibitory concentration of the tested substance.

CCOC(=O)c1ccc2c(c1)NC(=O)/C2=C(\Nc1ccc2c(c1)CCN2C(=O)CN1CCN(C)CC1)c1ccccc1 [Compound 4]
EC50 (HUVEC cells): 120 to 170 nM

COC(=O)c1ccc2c(c1)NC(=O)/C2=C(\Nc1ccc2c(c1)CCN2C(=O)CCC(=O)N(C)C)c1ccccc1 [Compound 6 hydrochloride]
EC50 (HUVEC cells): 190 to 280 nM

COC(=O)c1ccc2c(c1)NC(=O)/C2=C(\Nc1ccc2c(c1)CCN2C(=O)CN1CCOCC1)c1ccccc1 [Compound 7]
IC50 (hERG potassium channel): > 30000 nM
EC50 (HUVEC cells): 70 to 100 nM

COC(=O)c1ccc2c(c1)NC(=O)/C2=C(\Nc1ccc2c(c1)CCN2C(=O)CN1CCC(O)CC1)c1ccccc1 [Compound 8]
EC50 (HUVEC cells): 70 to 100 nM

COC(=O)c1ccc2c(c1)NC(=O)/C2=C(\Nc1ccc2c(c1)CCN2C(=O)CN1CCOCC1)c1ccc(F)cc1 [Compound 9, methyl(Z)-3-((4-fluorophenyl)(1-(2-morpholinylacetyl)indolin-5-ylamino)methylene)-2-oxoindoline-6-carboxylate]
IC50 (hERG potassium channel): > 30000 nM

CCOC(=O)c1ccc2c(c1)NC(=O)/C2=C(\Nc1ccc2c(c1)CCN2C(=O)CN1CCOCC1)c1ccccc1 [Compound 10, ethyl(Z)-3-((1-(2-morpholinylacetyl)indolin-5-ylamino)(phenyl)methylene)-2-oxoindoline-6-carboxylate]
IC50 (hERG potassium channel): > 30000 nM

COC(=O)c1ccc2c(c1)NC(=O)/C2=C(\Nc1ccc2c(c1)CCN2C(=O)CN1CC(C)OC(C)C1)c1ccccc1 (stereo not shown) [Compound 11 hydrochloride, methyl(Z)-3-((1-(2-(2,6-dimethylmorpholine)acetyl)indolin-5-ylamino)(phenyl)methylene)-2-oxoindoline-6-carboxylate]
EC50 (HUVEC cells): 50 to 80 nM

COC(=O)c1ccc2c(c1)NC(=O)/C2=C(\Nc1ccc2c(c1)CCN2C(=O)CN1CC(C)OC(C)C1)c1ccccc1 (stereo not shown) [Compound 11, methyl(Z)-3-((1-(2-(2,6-dimethylmorpholine)acetyl)indolin-5-ylamino)(phenyl)methylene)-2-oxoindoline-6-carboxylate]
IC50 (hERG potassium channel): > 30000 nM

COC(=O)c1ccc2c(c1)NC(=O)/C2=C(\Nc1ccc2c(c1)CCN2C(=O)CN1CCCC1=O)c1ccccc1 [Compound 12, methyl(Z)-3-((1-(2-(2-pyrrolidon-1-yl)acetyl)indolin-5-ylamino)(phenyl)methylene)-2-oxoindoline-6-carboxylate]
IC50 (hERG potassium channel): > 30000 nM

COC(=O)c1ccc2c(c1)NC(=O)/C2=C(\Nc1ccc2c(c1)CCN2C(=O)Cn1cncn1)c1ccccc1 [Compound 13, methyl(Z)-3-((1-(2-(1H-1,2,4-triazol-1-yl)acetyl)indolin-5-ylamino)(phenyl)methylene)-2-oxoindoline-6-carboxylate]
IC50 (hERG potassium channel): > 30000 nM

COC(=O)c1ccc2c(c1)NC(=O)/C2=C(\Nc1ccc2c(c1)CCN2C(=O)Cn1cccn1)c1ccccc1 [Compound 14, methyl(Z)-3-((1-(2-(1H-pyrazol-1-yl)acetyl)indolin-5-ylamino)(phenyl)methylene)-2-oxoindoline-6-carboxylate]
IC50 (hERG potassium channel): > 30000 nM

COC(=O)c1ccc2c(c1)NC(=O)/C2=C(\Nc1ccc(N(C)C(=O)CN2CCN(C)CC2)cc1)c1ccccc1 [Intedanib (BIBF-1120), Intedanib, reference compound]
IC50 (hERG potassium channel): 4900 nM
